From patent US8911751B2, “Compositions for nasal delivery” (Yissum Research Development Company of the Hebrew …, priority 2005, dated 2014)

System: Female C57Bl/6 mice
Assay: Pentobarbitone-induced sleeping in mice (Example 34)
Assay type: in vivo
Details: oral Brotizolam 0.25 mg/kg, 5 minutes before sleep induction; compared to control

Cc1nnc2n1-c1sc(Br)cc1C(c1ccccc1Cl)=NC2 [Oral Brotizolam, 8-bromo-6-(o-chlorophenyl)-1-methyl-4H-s-triazolo[3,4c]thieno[2,3e]1,4-diazepine]
latency (onset of the loss of righting reflex): no significant effect | total sleeping time (TST): no significant effect
